From patent US9050320B2, “Method for inducing lymphoid tissue and modulating intestinal homeostasis” (Institut Pasteur, priority 2009, dated 2015)

Columns and labels:
[1] = tested on: isolated lymphoid follicles (ILFs); test: ILF formation in germfree mice given peptidoglycans in the drinking water; assay type: in vivo
Protocol: Peptidoglycans. Peptidoglycan were purified from E. coli strain MC1061 as previously described ^32. Highly purified PGN (total of 100 mg) was digested with mutanolysin (Sigma) ^33 to generate the entire range of muropeptides present in E. coli PGN (Supplementary FIG. 3b). Soluble muropeptides were separated by reverse phase HPLC, and the N-acetylglucosamyl-β1,4-N-acetylmuramyl-L-alanyl-D-γ-glytamyl-meso-diaminopimelate-D-alanine (GMtetraDAP) was collected and purity tested by a new HPLC analysis (Supplementary FIG. 3b). The nature of the GMtetraDAP was confirmed by MALDI-TOF mass spectrometry analysis as previously described ^33. Muramyldipeptide (MDP) was purchased from Sigma. Mice received MDP or GMtetraDAP in drinking water at a fixed concentration of 1 μM from the age of 2 weeks (Experiment I) or form birth (experiment II) for different periods of time.
Immunofluorescence histology. Intestines were opened and washed several times in PBS before fixation overnight at 4° C. in a fresh solution of 4% paraformaldehyde (Sigma) in PBS. The samples were then washed 1 day in PBS, incubated in a solution of 30% sucrose (Sigma) in PBS until the samples sank, embedded in OCT compound 4583 (Sakura Finetek), frozen in a bath of isopentane cooled with liquid nitrogen and stocked at −80° C. Frozen blocs were cut at 8 μm thickness and sections collected onto Superfrost/Plus slides (VWR). Slides were dried 1 hour and processed for staining, or stocked at −80° C. For staining, slides were first hydrated in PBS-XG, (PBS containing 0.1% triton X-100 and 1% normal bovine serum, VWR) for 5 min and blocked with 10% bovine serum in PBS-XG for 1 hour at room temperature. […] Slides were examined under an Axiolmager M1 fluorescence microscope (Zeiss) equipped with a CCD camera and images were processed with AxioVision software (Zeiss). For the quantification of CPs and ILFs, 10-20 sections were cut at regular intervals through the whole thickness of flat ileal or colonic fragments of 2 cm in length and stained. CPs and ILFs were then counted under a fluorescence microscope.

[2] = tested on: isolated lymphoid follicles (ILFs); test: ILFs in SPF mice treated from birth with antibiotics in drinking water; assay type: in vivo; details: antibiotic in drinking water
Protocol: Antibodies, fusion proteins and antibiotics. Purified anti-CD11c (HL3) was purchased from BD Biosciences, phycoerythrin (PE)-, allophycocyanin (APC)- or biotin-conjugated anti-CD45R/B220 (RA3-6B2), and anti-CD45.2 (104) were purchased from eBiosciences, and purified anti-GFP (A-11122) and FITC-conjugated anti-rabbit polyclonal were purchased from Invitrogen. Neutralizing anti-CCL20 (114906) antibody was purchased from R&D Systems and 50-100 μg was injected i.p. in PBS twice a week. Human IgG1 and LTβR-Ig fusion protein have been previously described ^12; 100 μg protein was injected i.p. into pregnant mice 14.5 and 16.5 days after conception, or 50 μg protein was injected i.p. into newborn mice 1 day, 6 days and 12 days after birth, then 100 μg 15 days after birth. Vancomycin and colistin were purchased from Sigma and supplied to mice in the drinking water at a concentration of 500 mg/l and 1 g/l, respectively.
Immunofluorescence histology. […] Slides were examined under an Axiolmager M1 fluorescence microscope (Zeiss) equipped with a CCD camera and images were processed with AxioVision software (Zeiss). For the quantification of CPs and ILFs, 10-20 sections were cut at regular intervals through the whole thickness of flat ileal or colonic fragments of 2 cm in length and stained. CPs and ILFs were then counted under a fluorescence microscope.

[3] = tested on: isolated lymphoid follicles (ILFs); test: ILF formation in germfree mice reconstituted with bacteria; assay type: in vivo; details: adult germfree mice reconstituted, 8 weeks
Protocol: Bacterial strains and culture. ASF bacteria include the Gram^+Clostridium propionicum (ASF 356), Lactobacillus acidophilus (ASF 360), Lactobacillus murinus (ASF 361), Eubacterium plexicaudatum (ASF 492), Firmicutes sp. (ASF 500) and Clostridium sp. (ASF 502), the Gram^−Mucispirillum schaedleri (ASF 457) and Bacteroides distasonis (ASF 519) (Supplementary FIG. 2) ^13,34, and were obtained from Taconic. The bacteria were cultured in anaerobic conditions on Schaedler agar (Difco laboratories) supplemented with 5% sterile sheep blood (Biorad) in an anaerobic Glove chamber containing a 5% CO2, 10% H2 and 85% N2 atmosphere (Jacomex). The media were pre-reduced by placing them inside the chamber 2 days prior to inoculation of bacteria. Cultures were incubated in the chamber at 37° C. for different periods of time (1-5 days) depending on the bacterial strain. […]
Bacterial colonization of germfree mice. […] Fecal pellets from inoculated mice were assessed for colonization by microscopic examination of smears and quantified by serial dilutions of stool spread on Schaedler agar plates or by quantitative PCR (qPCR). […] Mice were colonized to similar levels by strains MC1061 and MHD79 (˜2.5×10^9 cfu/g of feces) and analyzed 8 weeks after bacterial reconstitution. […]

Euprymna scolopes = details: squid light organ; cited from earlier work

## CC(=O)N[C@H]1[C@H](O[C@H]2[C@H](O[C@H](C)C(=O)N[C@@H](C)C(=O)N[C@H](CCC(=O)N[C@@H](CCC[C@@H](N)C(=O)O)C(=O)N[C@H](C)C(=O)O)C(=O)O)[C@@H](NC(C)=O)C(O)O[C@@H]2CO)O[C@H](CO)[C@@H](O)[C@@H]1O (stereo partly drawn) [GMtetraDAP, N-acetylglucosamyl-β1,4-N-acetylmuramyl-L-alanyl-D-γ-glytamyl-meso-diaminopimelate-D-alanine]
[1]; 8 weeks old germ free mice, in drinking water from birth
  ILFs in sections from the ileum (histology): ILFs were numerous and showed some level of follicular organization
[1]; germfree mice, 1 μM in drinking water, 10 weeks of treatment starting from birth (Experiment II)
  ILFs in the colon: Significant numbers of ILFs were also detected
[1]; germfree mice, 1 μM in drinking water, after 6 weeks of treatment
  induction of ILFs in the ileum: induced a significant number of ILFs, mostly iILFs

## CN[C@H](CC(C)C)C(=O)N[C@H]1C(=O)N[C@@H](CC(N)=O)C(=O)N[C@H]2C(=O)N[C@H]3C(=O)N[C@H](C(=O)N[C@H](C(=O)O)c4cc(O)cc(O)c4-c4cc3ccc4O)[C@H](O)c3ccc(c(Cl)c3)Oc3cc2cc(c3O[C@@H]2O[C@H](CO)[C@@H](O)[C@H](O)[C@H]2O[C@H]2C[C@](C)(N)[C@H](O)[C@H](C)O2)Oc2ccc(cc2Cl)[C@H]1O [vancomycin, Vancomycin]
[2]
  formation of ILFs: formed significant numbers of ILFs, but lower numbers than in control mice

## Lactobacillus acidophilus
[3]
  induction of ileal and colonic ILFs: induced no or few ILFs

## colistin
[2]
  formation of ILFs: formed few ILFs

## tracheal cytotoxin [TCT]
Euprymna scolopes
  hemocyte infiltration of crypts, epithelial apoptosis and morphogenesis: recapitulated by TCT alone
